Results taken from patent publication US11109593B2, “Isoxazolin-5-one derivative and herbicide containing same as active ingredient” (HOKKO CHEMICAL INDUSTRY CO., LTD., priority 2017, dated 2021).

The compounds below were run on Echinochloa crus-galli (assay: Test Example 1: herbicidal effect test by treatment of rice paddy soil (immediately after seeding)). Settings: 120 g/10a active ingredient, dry weight vs untreated area, 14 days after treatment.
Assay type: in vivo
Procedure, shortened: (§1)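 Pre-emergence paddy water application, 120 g a.i./10 ares, applied immediately post-seeding into ~3 cm flood; glasshouse; duplicate pots; dry weight at 14 d → % inhibition = (1 − treated/untreated) × 100.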

Row | SMILES | Herbicidal rate (%) Echinochloa crus-galli [%]
1 | Cc1c(Cc2ccccc2N(S(=O)(=O)C(F)(F)F)S(=O)(=O)C(F)(F)F)c(=O)on1CC[S+](C)[O-] (centres unmarked) [Compound 1-1005] | 90
2 | Cc1c(Cc2ccccc2N(C(=O)OCc2ccccc2)S(=O)(=O)C(F)(F)F)c(=O)on1CC(C)C [Compound 1-785] | 90

These compounds were tested on Scirpus juncoides in the same assay as above. Settings: 120 g/10a active ingredient, dry weight vs untreated area, 14 days after treatment.
Assay type: in vivo
Procedure, shortened: as §1

Row | SMILES | Herbicidal rate (%) Scirpus juncoides [%]
3 | Cc1c(Cc2ccccc2N(S(=O)(=O)C(F)(F)F)S(=O)(=O)C(F)(F)F)c(=O)on1CC[S+](C)[O-] (centres unmarked) [Compound 1-1005] | 90
4 | Cc1c(Cc2ccccc2N(C(=O)OCc2ccccc2)S(=O)(=O)C(F)(F)F)c(=O)on1CC(C)C [Compound 1-785] | 90

These compounds were tested on broad leaf weeds (Lindernia pyxidaria and Monochoria vaginalis) in the same assay as above. Settings: Lindernia pyxidaria, 120 g/10a active ingredient, dry weight vs untreated area, 14 days after treatment.
Assay type: in vivo
Procedure, shortened: as §1

Row | SMILES | Herbicidal rate (%) Lindernia pyxidaria [%]
5 | Cc1c(Cc2ccccc2N(S(=O)(=O)C(F)(F)F)S(=O)(=O)C(F)(F)F)c(=O)on1CC[S+](C)[O-] (centres unmarked) [Compound 1-1005] | 60
6 | Cc1c(Cc2ccccc2N(C(=O)OCc2ccccc2)S(=O)(=O)C(F)(F)F)c(=O)on1CC(C)C [Compound 1-785] | 90

Same assay, conditions: Monochoria vaginalis, 120 g/10a active ingredient, dry weight vs untreated area, 14 days after treatment

Row | SMILES | Herbicidal rate (%) Monochoria vaginalis [%]
7 | Cc1c(Cc2ccccc2N(S(=O)(=O)C(F)(F)F)S(=O)(=O)C(F)(F)F)c(=O)on1CC[S+](C)[O-] (centres unmarked) [Compound 1-1005] | 70
8 | Cc1c(Cc2ccccc2N(C(=O)OCc2ccccc2)S(=O)(=O)C(F)(F)F)c(=O)on1CC(C)C [Compound 1-785] | 90

The compounds below were run on Echinochloa crus-galli (assay: Test Example 2: herbicidal effect test by treatment during growing period in paddy rice cultivation (seven days after seeding)). Settings: 120 g/10a active ingredient, assessed 14 days after treatment, dry weight vs untreated area.
Assay type: in vivo
Procedure, shortened: (§2)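 Herbicidal rate = (1 − treated/untreated mean dry weight) × 100, scored 14 days after application, two replicates per rate. Treatment: diluted emulsion dropped onto paddy water seven days after sowing, 120 g active ingredient per 10 ares, in a glass greenhouse.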

Row | SMILES | Herbicidal rate (%) Echinochloa crus-galli [%]
9 | Cc1c(Cc2ccccc2N(S(=O)(=O)C(F)(F)F)S(=O)(=O)C(F)(F)F)c(=O)on1CC[S+](C)[O-] (centres unmarked) [Compound 1-1005] | 90
10 | Cc1c(Cc2ccccc2N(C(=O)OCc2ccccc2)S(=O)(=O)C(F)(F)F)c(=O)on1CC(C)C [Compound 1-785] | 90

Each compound was assayed on Scirpus juncoides in the same assay as above. Settings: 120 g/10a active ingredient, assessed 14 days after treatment, dry weight vs untreated area.
Assay type: in vivo
Procedure, shortened: as §2

Row | SMILES | Herbicidal rate (%) Scirpus juncoides [%]
11 | Cc1c(Cc2ccccc2N(S(=O)(=O)C(F)(F)F)S(=O)(=O)C(F)(F)F)c(=O)on1CC[S+](C)[O-] (centres unmarked) [Compound 1-1005] | 90
12 | Cc1c(Cc2ccccc2N(C(=O)OCc2ccccc2)S(=O)(=O)C(F)(F)F)c(=O)on1CC(C)C [Compound 1-785] | 90

What follows are compounds tested on broad leaf weeds (Lindernia pyxidaria and Monochoria vaginalis) in the same assay as above. Settings: Lindernia pyxidaria, 120 g/10a active ingredient, assessed 14 days after treatment, dry weight vs untreated area.
Assay type: in vivo
Procedure, shortened: as §2

Row | SMILES | Herbicidal rate (%) Lindernia pyxidaria [%]
13 | Cc1c(Cc2ccccc2N(S(=O)(=O)C(F)(F)F)S(=O)(=O)C(F)(F)F)c(=O)on1CC[S+](C)[O-] (centres unmarked) [Compound 1-1005] | 70
14 | Cc1c(Cc2ccccc2N(C(=O)OCc2ccccc2)S(=O)(=O)C(F)(F)F)c(=O)on1CC(C)C [Compound 1-785] | 90

Same assay, conditions: Monochoria vaginalis, 120 g/10a active ingredient, assessed 14 days after treatment, dry weight vs untreated area

Row | SMILES | Herbicidal rate (%) Monochoria vaginalis [%]
15 | Cc1c(Cc2ccccc2N(S(=O)(=O)C(F)(F)F)S(=O)(=O)C(F)(F)F)c(=O)on1CC[S+](C)[O-] (centres unmarked) [Compound 1-1005] | 90
16 | Cc1c(Cc2ccccc2N(C(=O)OCc2ccccc2)S(=O)(=O)C(F)(F)F)c(=O)on1CC(C)C [Compound 1-785] | 90

Each compound was assayed on Amaranthus viridis (assay: Test Example 3: herbicidal effect test by treatment of dry field farming soil (one day after seeding)). Settings: 120 g/10a active ingredient, evaluated 14 days after treatment.
Assay type: in vivo
Procedure, shortened: (§3)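 Seeds (20 each) mixed into top 1 cm of alluvium in pots, surface pressed. One day later, diluted emulsion sprayed onto soil, 100 L/10 a, 120 g a.i./10 a. Dry weight at 14 d vs untreated gave % herbicidal rate; n=2.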

Row | SMILES | herbicidal rate, Amaranthus viridis [%]
17 | Cc1c(Cc2ccccc2N(S(=O)(=O)C(F)(F)F)S(=O)(=O)C(F)(F)F)c(=O)on1CC[S+](C)[O-] (centres unmarked) [Compound 1-1005] | 40
18 | Cc1c(Cc2ccccc2N(C(=O)OCc2ccccc2)S(=O)(=O)C(F)(F)F)c(=O)on1CC(C)C [Compound 1-785] | 90

These compounds were tested on Chenopodium album in the same assay as above. Settings: 120 g/10a active ingredient, evaluated 14 days after treatment.
Assay type: in vivo
Procedure, shortened: as §3

Row | SMILES | herbicidal rate, Chenopodium album [%]
19 | Cc1c(Cc2ccccc2N(S(=O)(=O)C(F)(F)F)S(=O)(=O)C(F)(F)F)c(=O)on1CC[S+](C)[O-] (centres unmarked) [Compound 1-1005] | 40
20 | Cc1c(Cc2ccccc2N(C(=O)OCc2ccccc2)S(=O)(=O)C(F)(F)F)c(=O)on1CC(C)C [Compound 1-785] | 90

The compounds below were run on Echinochloa crus-galli in the same assay as above. Settings: 120 g/10a active ingredient, evaluated 14 days after treatment.
Assay type: in vivo
Procedure, shortened: as §3

Row | SMILES | herbicidal rate, Echinochloa crus-galli [%]
21 | Cc1c(Cc2ccccc2N(S(=O)(=O)C(F)(F)F)S(=O)(=O)C(F)(F)F)c(=O)on1CC[S+](C)[O-] (centres unmarked) [Compound 1-1005] | 60
22 | Cc1c(Cc2ccccc2N(C(=O)OCc2ccccc2)S(=O)(=O)C(F)(F)F)c(=O)on1CC(C)C [Compound 1-785] | 90

What follows are compounds tested on southern crabgrass in the same assay as above. Settings: 120 g/10a active ingredient, evaluated 14 days after treatment.
Assay type: in vivo
Procedure, shortened: as §3

Row | SMILES | herbicidal rate, southern crabgrass [%]
23 | Cc1c(Cc2ccccc2N(S(=O)(=O)C(F)(F)F)S(=O)(=O)C(F)(F)F)c(=O)on1CC[S+](C)[O-] (centres unmarked) [Compound 1-1005] | 40
24 | Cc1c(Cc2ccccc2N(C(=O)OCc2ccccc2)S(=O)(=O)C(F)(F)F)c(=O)on1CC(C)C [Compound 1-785] | 90

These compounds were tested on Amaranthus viridis (assay: Test Example 4: herbicidal effect test by treatment of leave and stem in dry field farming (seven days after seeding)). Settings: 120 g/10a active ingredient; emulsion sprayed seven days after seeding; evaluated 14 days after treatment.
Assay type: in vivo
Procedure, shortened: (§4)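 Twenty seeds per species were mixed into the top 1 cm of alluvial soil in 36 cm^2 pots; emulsions were sprayed seven days after seeding at 100 L per 10 ares (120 g active ingredient per 10 ares). Herbicidal rate (%) = {1 − treated/untreated mean dry weight} × 100, 14 days after treatment, duplicate.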

Row | SMILES | herbicidal effect (herbicidal rate), Amaranthus viridis [%]
25 | Cc1c(Cc2ccccc2N(S(=O)(=O)C(F)(F)F)S(=O)(=O)C(F)(F)F)c(=O)on1CC[S+](C)[O-] (centres unmarked) [Compound 1-1005] | 40
26 | Cc1c(Cc2ccccc2N(C(=O)OCc2ccccc2)S(=O)(=O)C(F)(F)F)c(=O)on1CC(C)C [Compound 1-785] | 40

Each compound was assayed on Chenopodium album in the same assay as above. Settings: 120 g/10a active ingredient; emulsion sprayed seven days after seeding; evaluated 14 days after treatment.
Assay type: in vivo
Procedure, shortened: as §4

Row | SMILES | herbicidal effect (herbicidal rate), Chenopodium album [%]
27 | Cc1c(Cc2ccccc2N(S(=O)(=O)C(F)(F)F)S(=O)(=O)C(F)(F)F)c(=O)on1CC[S+](C)[O-] (centres unmarked) [Compound 1-1005] | 40
28 | Cc1c(Cc2ccccc2N(C(=O)OCc2ccccc2)S(=O)(=O)C(F)(F)F)c(=O)on1CC(C)C [Compound 1-785] | 40

What follows are compounds tested on Echinochloa crus-galli in the same assay as above. Settings: 120 g/10a active ingredient; emulsion sprayed seven days after seeding; evaluated 14 days after treatment.
Assay type: in vivo
Procedure, shortened: as §4

Row | SMILES | herbicidal effect (herbicidal rate), Echinochloa crus-galli [%]
29 | Cc1c(Cc2ccccc2N(S(=O)(=O)C(F)(F)F)S(=O)(=O)C(F)(F)F)c(=O)on1CC[S+](C)[O-] (centres unmarked) [Compound 1-1005] | 60
30 | Cc1c(Cc2ccccc2N(C(=O)OCc2ccccc2)S(=O)(=O)C(F)(F)F)c(=O)on1CC(C)C [Compound 1-785] | 90

Each compound was assayed on southern crabgrass in the same assay as above. Settings: 120 g/10a active ingredient; emulsion sprayed seven days after seeding; evaluated 14 days after treatment.
Assay type: in vivo
Procedure, shortened: as §4

Row | SMILES | herbicidal effect (herbicidal rate), southern crabgrass [%]
31 | Cc1c(Cc2ccccc2N(S(=O)(=O)C(F)(F)F)S(=O)(=O)C(F)(F)F)c(=O)on1CC[S+](C)[O-] (centres unmarked) [Compound 1-1005] | 40
32 | Cc1c(Cc2ccccc2N(C(=O)OCc2ccccc2)S(=O)(=O)C(F)(F)F)c(=O)on1CC(C)C [Compound 1-785] | 90
